Reference: ChEMBL document CHEMBL3352542, “Synthesis, biological evaluation and molecular modeling study of 2-(1,3,4-thiadiazolyl-thio and 4-methyl-thiazolyl-thio)-quinazolin-4-ones as a new class of DHFR inhibitors” (Bioorg Med Chem Lett, 2014)
pIC50: −log10 of the molar value. The source made the active and inactive calls. The rule behind the calls is not given here.

Assays:
[1] = test system: A498; experiment: Growth inhibition of human A498 cells at 10 uM after 48 hrs; format: functional
[2] = test system: MDA-MB-231; experiment: Growth inhibition of human MDA-MB-231 cells at 10 uM after 48 hrs; format: functional
[3] = test system: NCI-H23; experiment: Growth inhibition of human NCI-H23 cells at 10 uM after 48 hrs; format: functional
[4] = test system: KM12; experiment: Growth inhibition of human KM12 cells at 10 uM after 48 hrs; format: functional
[5] = test system: OVCAR-5; experiment: Growth inhibition of human OVCAR5 cells at 10 uM after 48 hrs; format: functional
[6] = test system: NCI-H226; experiment: Growth inhibition of human NCI-H226 cells at 10 uM after 48 hrs; format: functional
[7] = test system: OVCAR-3; experiment: Growth inhibition of human OVCAR3 cells at 10 uM after 48 hrs; format: functional
[8] = test system: 786-0; experiment: Growth inhibition of human 786-0 cells at 10 uM after 48 hrs; format: functional
[9] = test system: Staphylococcus aureus; experiment: Antimicrobial activity against Staphylococcus aureus assessed as inhibition zone at 200 ug/disk after 24 hrs by disc-diffusion method; format: functional; details: read-out: IZ
[10] = test system: U-251; experiment: Growth inhibition of human U251 cells at 10 uM after 48 hrs; format: functional
[11] = test system: UACC-257; experiment: Growth inhibition of human UACC257 cells at 10 uM after 48 hrs; format: functional
[12] = test system: LOX IMVI; experiment: Growth inhibition of human LOXIMVI cells at 10 uM after 48 hrs; format: functional
[13] = test system: HCT-116; experiment: Growth inhibition of human HCT116 cells at 10 uM after 48 hrs; format: functional
[14] = test system: PC-3; experiment: Growth inhibition of human PC3 cells at 10 uM after 48 hrs; format: functional
[15] = test system: HCT-15; experiment: Growth inhibition of human HCT15 cells at 10 uM after 48 hrs; format: functional
[16] = test system: SW-620; experiment: Growth inhibition of human SW620 cells at 10 uM after 48 hrs; format: functional
[17] = test system: T47D; experiment: Growth inhibition of human T47D cells at 10 uM after 48 hrs; format: functional
[18] = test system: HCC 2998; experiment: Growth inhibition of human HCC2998 cells at 10 uM after 48 hrs; format: functional
[19] = test system: Bacillus subtilis; experiment: Antimicrobial activity against Bacillus subtilis assessed as inhibition zone at 200 ug/disk after 24 hrs by disc-diffusion method; format: functional; details: read-out: IZ
[20] = test system: Escherichia coli; experiment: Antimicrobial activity against Escherichia coli assessed as inhibition zone at 200 ug/disk after 24 hrs by disc-diffusion method; format: functional; details: read-out: IZ
[21] = test system: SK-MEL-5; experiment: Growth inhibition of human SK-MEL-5 cells at 10 uM after 48 hrs; format: functional
[22] = test system: HT-29; experiment: Growth inhibition of human HT-29 cells at 10 uM after 48 hrs; format: functional
[23] = test system: MDA-MB-468; experiment: Growth inhibition of human MDA-MB-468 cells at 10 uM after 48 hrs; format: functional
[24] = test system: SF-268; experiment: Growth inhibition of human SF268 cells at 10 uM after 48 hrs; format: functional
[25] = test system: Malme-3M; experiment: Growth inhibition of human MALME-3M cells at 10 uM after 48 hrs; format: functional
[26] = test system: MOLT-4; experiment: Growth inhibition of human MOLT4 cells at 10 uM after 48 hrs; format: functional
[27] = test system: SNB-19; experiment: Growth inhibition of human SNB19 cells at 10 uM after 48 hrs; format: functional
[28] = test system: NCI/ADR-RES; experiment: Growth inhibition of human NCI-ADR-RES cells at 10 uM after 48 hrs; format: functional
[29] = test system: CAKI-1; experiment: Growth inhibition of human CAKI-1 cells at 10 uM after 48 hrs; format: functional
[30] = test system: RPMI-8226; experiment: Growth inhibition of human RPMI8226 cells at 10 uM after 48 hrs; format: functional
[31] = test system: Hs-578T; experiment: Growth inhibition of human Hs 578T cells at 10 uM after 48 hrs; format: functional
[32] = test system: CCRF-CEM; experiment: Growth inhibition of human CCRF-CEM cells at 10 uM after 48 hrs; format: functional
[33] = test system: SR; experiment: Growth inhibition of human SR cells at 10 uM after 48 hrs; format: functional
[34] = test system: A549; experiment: Growth inhibition of human A549 cells at 10 uM after 48 hrs; format: functional
[35] = test system: K562; experiment: Growth inhibition of human K562 cells at 10 uM after 48 hrs; format: functional
[36] = test system: OVCAR-8; experiment: Growth inhibition of human OVCAR8 cells at 10 uM after 48 hrs; format: functional
[37] = test system: HOP-92; experiment: Growth inhibition of human HOP92 cells at 10 uM after 48 hrs; format: functional
[38] = test system: SF-539; experiment: Growth inhibition of human SF539 cells at 10 uM after 48 hrs; format: functional
[39] = test system: TK-10; experiment: Growth inhibition of human TK10 cells at 10 uM after 48 hrs; format: functional
[40] = test system: Candida albicans; experiment: Antimicrobial activity against Candida albicans assessed as inhibition zone at 200 ug/disk after 24 hrs by disc-diffusion method; format: functional; details: read-out: IZ
[41] = biological target: T1, Dihydrofolate reductase (Bos taurus, UniProt P00376); experiment: Inhibition of bovine liver DHFR
T1 sequence (P00376 whole entry): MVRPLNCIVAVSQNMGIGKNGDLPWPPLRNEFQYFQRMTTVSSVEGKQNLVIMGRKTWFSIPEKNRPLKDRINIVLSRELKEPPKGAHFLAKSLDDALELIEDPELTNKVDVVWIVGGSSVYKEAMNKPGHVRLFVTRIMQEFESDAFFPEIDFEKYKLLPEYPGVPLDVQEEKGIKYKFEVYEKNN

[42] = test system: NCI-H460; experiment: Growth inhibition of human NCI-H460 cells at 10 uM after 48 hrs; format: functional
[43] = test system: HL-60(TB); experiment: Growth inhibition of human HL-60(TB) cells at 10 uM after 48 hrs; format: functional
[44] = test system: BT-549; experiment: Growth inhibition of human BT549 cells at 10 uM after 48 hrs; format: functional
[45] = test system: RXF 393; experiment: Growth inhibition of human RXF393 cells at 10 uM after 48 hrs; format: functional
[46] = test system: OVCAR-4; experiment: Growth inhibition of human OVCAR4 cells at 10 uM after 48 hrs; format: functional
[47] = test system: UO-31; experiment: Growth inhibition of human UO31 cells at 10 uM after 48 hrs; format: functional
[48] = test system: UACC-62; experiment: Growth inhibition of human UACC62 cells at 10 uM after 48 hrs; format: functional
[49] = test system: M14; experiment: Growth inhibition of human M14 cells at 10 uM after 48 hrs; format: functional
[50] = test system: NCI-H522; experiment: Growth inhibition of human NCI-H522 cells at 10 uM after 48 hrs; format: functional
[51] = test system: SNB-75; experiment: Growth inhibition of human SNB75 cells at 10 uM after 48 hrs; format: functional
[52] = test system: COLO 205; experiment: Growth inhibition of human COLO205 cells at 10 uM after 48 hrs; format: functional
[53] = test system: SF-295; experiment: Growth inhibition of human SF295 cells at 10 uM after 48 hrs; format: functional
[54] = test system: ACHN; experiment: Growth inhibition of human ACHN cells at 10 uM after 48 hrs; format: functional
[55] = test system: Pseudomonas aeruginosa; experiment: Antimicrobial activity against Pseudomonas aeruginosa assessed as inhibition zone at 200 ug/disk after 24 hrs by disc-diffusion method; format: functional; details: read-out: IZ
[56] = test system: MCF7; experiment: Growth inhibition of human MCF7 cells at 10 uM after 48 hrs; format: functional
[57] = test system: MDA-MB-435; experiment: Growth inhibition of human MDA-MB-435 cells at 10 uM after 48 hrs; format: functional
[58] = test system: SN12C; experiment: Growth inhibition of human SN12C cells at 10 uM after 48 hrs; format: functional

With COc1ccc(-n2c(Sc3sc(N)nc3C)nc3cc(OC)c(OC)cc3c2=O)cc1 the “growth inhibition (GI)” value [1] was “inactive”, the “growth inhibition (GI)” value [2] was “inactive” and the “growth inhibition (GI)” value [3] was “inactive”. The “growth inhibition (GI)” value [4] was “inactive”, the “growth inhibition (GI)” value [5] was “inactive” and the “growth inhibition (GI)” value [6] was “inactive”. For the same compound, the “growth inhibition (GI)” value [7] was “inactive”, the “growth inhibition (GI)” value [8] was “inactive” and the zone of inhibition at 200 µg/disc [9] was 8 mm. For the same compound, the “growth inhibition (GI)” value [10] was “inactive”, the “growth inhibition (GI)” value [11] was “inactive” and the “growth inhibition (GI)” value [12] was “inactive”. For the same compound, the “growth inhibition (GI)” value [13] was “inactive”, the “growth inhibition (GI)” value [14] was “inactive” and the “growth inhibition (GI)” value [15] was “inactive”. The “growth inhibition (GI)” value [16] was “inactive”, the “growth inhibition (GI)” value [17] was “inactive” and the “growth inhibition (GI)” value [18] was “inactive”. The zone of inhibition at 200 µg/disc [19] was 8 mm, the zone of inhibition at 200 µg/disc [20] was 8 mm and the “growth inhibition (GI)” value [21] was “inactive”. For the same compound, the “growth inhibition (GI)” value [22] was “inactive”, the “growth inhibition (GI)” value [23] was “inactive” and the “growth inhibition (GI)” value [24] was “inactive”. For the same compound, the “growth inhibition (GI)” value [25] was “inactive”, the “growth inhibition (GI)” value [26] was “inactive” and the “growth inhibition (GI)” value [27] was “inactive”. For the same compound, the “growth inhibition (GI)” value [28] was “inactive”, the “growth inhibition (GI)” value [29] was “inactive” and the “growth inhibition (GI)” value [30] was “inactive”. The “growth inhibition (GI)” value [31] was “inactive”, the “growth inhibition (GI)” value [32] was “inactive” and the “growth inhibition (GI)” value [33] was “inactive”. For the same compound, the “growth inhibition (GI)” value [34] was “inactive”, the “growth inhibition (GI)” value [35] was “inactive” and the “growth inhibition (GI)” value [36] was “inactive”. The “growth inhibition (GI)” value [37] was “inactive”, the “growth inhibition (GI)” value [38] was “inactive” and the “growth inhibition (GI)” value [39] was “inactive”. The zone of inhibition at 200 µg/disc [40] was 8 mm, the pIC50 [41] was 6.00 and the “growth inhibition (GI)” value [42] was “inactive”. The “growth inhibition (GI)” value [43] was “inactive”, the “growth inhibition (GI)” value [44] was “inactive” and the “growth inhibition (GI)” value [45] was “inactive”. For the same compound, the “growth inhibition (GI)” value [46] was “inactive”, the “growth inhibition (GI)” value [47] was “inactive” and the “growth inhibition (GI)” value [48] was “inactive”. For the same compound, the “growth inhibition (GI)” value [49] was “inactive”, the “growth inhibition (GI)” value [50] was “inactive” and the “growth inhibition (GI)” value [51] was “inactive”. For the same compound, the “growth inhibition (GI)” value [52] was “inactive”, the “growth inhibition (GI)” value [53] was “inactive” and the “growth inhibition (GI)” value [54] was “inactive”. For the same compound, the zone of inhibition at 200 µg/disc [55] was 8 mm, the “growth inhibition (GI)” value [56] was “inactive” and the “growth inhibition (GI)” value [57] was “inactive”. The “growth inhibition (GI)” value [58] was “inactive”.
